Test results as given in publication PMC5464344, “Analgesic and anti‐inflammatory properties of novel, selective, and potent EP4 receptor antagonists” (Pharmacology Research & Perspectives, 2017).
Like-named read-outs stand apart in the source and are kept apart here.

Legend:
human EP2 receptor = target: T1, human EP2 receptor (Homo sapiens, UniProt P43116); experiment: [3H]-PGE2 receptor binding assay, EP2 membranes
T1 construct: host or cells: HEK293, transient; membrane preparation
Description: Receptor binding assays were done using membrane preparations of HEK 293 cells transfected with various prostanoid receptors using previously published procedure (Nakao et al. 2007). EP1 and EP4 membranes were prepared from recombinant HEK293 cells stably expressing human EPl receptor (GenBank Accession # AY275470, Clone ID PER0100000, UMR cDNA Resource Center, Rolla, MO) or human EP4 receptor. EP2 and EP3 membranes were prepared from HEK293 cells transiently transfected with human EP2 receptor (GenBank Accession # AY275471, Clone ID PER0200000, UMR cDNA Resource Center, Rolla, MO) or human EP3 receptor (GenBank Accession # AY429108, Clone ID PER3VI0000, UMR cDNA Resource Center, Rolla, MO) plasmids. Frozen cell pellets were homogenized in homogenization buffer (10 mmol/L Tris‐HCl, pH7.4, 250 mmol/L sucrose, 1 mmol/L EDTA, 0.3 mmol/L indomethacin and protease inhibitor cocktail with EDTA (Roche Molecular Biochemicals, catalog # 1691498)) using a Teflon/glass homogenizer. After a low speed centrifugation (200g for 15 min at 4°C) the supernatant was subjected to high speed centrifugation (30,000g for 60 min at 4°C). Membrane protein preparation was aliquoted and quick frozen on dry ice prior to storage at −80°C. […] Compounds were tested in a 96‐well format using a three‐fold dilution series to generate 10‐point curves. […] The binding reaction was performed in 200 μL MES buffer (10 mmol/L MES, pH 6.0, 10 mmol/L MgCl2, and l mmol/L EDTA) using polystyrene 96‐well plates. […] The membranes were harvested by filtration (TomTek harvester), washed four times with cold buffer (10 mmol/L MES, pH 6.0, 10 mmol/L MgCl2), dried in a 60°C oven, and the radioactivity was quantified as counts per min (CPM) using a TopCount detector. […] Data were analyzed using a 4‐parameter nonlinear logistic equation. K i Conversion from IC50 Values (K i = […] where [L] is the ligand concentration). Results are expressed as the geometric mean ± standard deviation or geometric mean ± standard error as noted.

[1] = test system: PGE2 Inhibited TNFα in human whole blood; experiment: Human whole blood assay (Reversal of PGE2 Inhibited TNFα); type: cell-based; details: for times more potent than reference EP4 antagonists (whole blood assay): PGE2 mediated TNF-α
Description: Blood was collected from normal volunteer donors into sodium heparin vacutainer tubes. Donors had not taken glucocorticoids within 2 weeks of the donation. […] The plates were incubated for 20–24 h at 37 °C, 5% CO2, in a humidified atmosphere. […] Plasma was removed from the cell layer and was transferred to v‐bottom polypropylene plates. […] The plates were read at A450‐A650 on a plate reader (Molecular Devices Versamax) using SOFTmaxPRO (v. 4.3.I) software. IC50s were calculated using Graphpad Prism (v. 4) nonlinear regression, sigmoidal dose response curve fitting. Results are expressed as the geometric mean ± SD.

Human EP4 = Human EP4 (Homo sapiens, UniProt P35408); experiment: EP4 cAMP antagonist assay (HTRF), human EP4; type: cell-based; details: read-out: cAMP Antagonism (hEP4) Human EP4 IC50
Description: Human EP4 (GenBank Accession # AY429109, Clone ID PER0400000, UMR cDNA Resource Center, Rolla, MO) was stably expressed in HEK293 cells. Rat EP4 cDNA (GenBank Accession# NM_03276) was cloned into pcDNA 3.1 vector and stably transfected into HEK293 cells. The cell lines were maintained in DMEM (invitrogen) supplemented with 10% fetal bovine serum (FBS), 1 mmol/L sodium pyruvate, 10 mmol/L HEPES, 500 μg/mL geneticin and 2 mmol/L L‐glutamine. Confluent cultures were grown at 37°C in an atmosphere containing 5% CO2. […] Immediately prior to the assay, cells were thawed with DMEM and suspended in cAMP assay buffer (HBSS with 0.1% BSA, 20 mmol/L HEPES and 200 μmol/L IBMX).
To measure the cAMP levels, cAMP‐d2 conjugate and anti cAMP‐cryptate conjugate in lysis buffer were incubated with the treated cells at room temperature for 1 h. […] The raw data were converted to cAMP (nmol/L) using a cAMP standard curve generated for each experiment. Data were analyzed using a 4‐parameter nonlinear logistic equation. Results are expressed as the geometric mean ± standard deviation or geometric mean ± standard error as noted.

Rat EP4 = target: T2, Rat EP4 (Rattus norvegicus, UniProt P43114); experiment: EP4 cAMP antagonist assay (HTRF), rat EP4; type: cell-based; details: read-out: cAMP Antagonism Rat EP4 IC50
T2 construct: expressed in transfected cells
Description: Human EP4 (GenBank Accession # AY429109, Clone ID PER0400000, UMR cDNA Resource Center, Rolla, MO) was stably expressed in HEK293 cells. Rat EP4 cDNA (GenBank Accession# NM_03276) was cloned into pcDNA 3.1 vector and stably transfected into HEK293 cells. The cell lines were maintained in DMEM (invitrogen) supplemented with 10% fetal bovine serum (FBS), 1 mmol/L sodium pyruvate, 10 mmol/L HEPES, 500 μg/mL geneticin and 2 mmol/L L‐glutamine. Confluent cultures were grown at 37°C in an atmosphere containing 5% CO2. Cells were harvested using 0.25% Trypsin‐ EDTA, suspended in freeze media at a density of 10^7cel1s/mL, and aliquots were stored in liquid nitrogen. Immediately prior to the assay, cells were thawed with DMEM and suspended in cAMP assay buffer (HBSS with 0.1% BSA, 20 mmol/L HEPES and 200 μmol/L IBMX).
CJ‐023,423 served as the positive control. To measure the cAMP levels, cAMP‐d2 conjugate and anti cAMP‐cryptate conjugate in lysis buffer were incubated with the treated cells at room temperature for 1 h. The HTRF signal was detected using an EnVision plate reader (Perkin‐Elmer, Inc., Waltham, MA, USA.) to calculate the ratio of fluorescence at 665 to 620 nm. The raw data were converted to cAMP (nmol/L) using a cAMP standard curve generated for each experiment. Data were analyzed using a 4‐parameter nonlinear logistic equation. Results are expressed as the geometric mean ± standard deviation or geometric mean ± standard error as noted.

[2] = HEK293 membranes, [3H]-PGE2, geometric mean ± SEM, read-out: hEP1-4 receptor binding EP2 Ki

T1 sequence (P43116 whole entry): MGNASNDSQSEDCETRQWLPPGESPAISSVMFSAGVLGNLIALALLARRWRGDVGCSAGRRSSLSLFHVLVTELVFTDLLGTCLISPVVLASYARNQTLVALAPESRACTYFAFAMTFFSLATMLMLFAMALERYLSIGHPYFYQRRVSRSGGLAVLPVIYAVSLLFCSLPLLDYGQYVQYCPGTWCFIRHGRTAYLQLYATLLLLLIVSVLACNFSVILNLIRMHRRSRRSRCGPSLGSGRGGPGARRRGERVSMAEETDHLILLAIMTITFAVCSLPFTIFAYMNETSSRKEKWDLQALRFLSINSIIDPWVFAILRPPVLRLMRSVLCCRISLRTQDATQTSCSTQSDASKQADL
Sequence of Human EP4 (P35408 whole entry): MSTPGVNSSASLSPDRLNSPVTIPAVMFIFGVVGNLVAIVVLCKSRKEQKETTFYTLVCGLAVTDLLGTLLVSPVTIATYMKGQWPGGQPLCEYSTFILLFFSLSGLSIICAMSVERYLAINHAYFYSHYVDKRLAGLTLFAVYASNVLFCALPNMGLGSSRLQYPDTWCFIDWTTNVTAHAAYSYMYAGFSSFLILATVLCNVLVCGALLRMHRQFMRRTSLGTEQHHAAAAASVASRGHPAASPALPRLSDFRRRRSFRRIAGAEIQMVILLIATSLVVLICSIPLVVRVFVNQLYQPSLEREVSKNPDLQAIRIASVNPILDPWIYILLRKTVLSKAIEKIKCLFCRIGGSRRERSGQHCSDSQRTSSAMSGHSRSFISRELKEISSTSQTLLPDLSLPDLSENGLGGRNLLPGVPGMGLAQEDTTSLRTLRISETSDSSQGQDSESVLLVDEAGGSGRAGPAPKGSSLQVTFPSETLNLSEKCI
T2 sequence (P43114 whole entry): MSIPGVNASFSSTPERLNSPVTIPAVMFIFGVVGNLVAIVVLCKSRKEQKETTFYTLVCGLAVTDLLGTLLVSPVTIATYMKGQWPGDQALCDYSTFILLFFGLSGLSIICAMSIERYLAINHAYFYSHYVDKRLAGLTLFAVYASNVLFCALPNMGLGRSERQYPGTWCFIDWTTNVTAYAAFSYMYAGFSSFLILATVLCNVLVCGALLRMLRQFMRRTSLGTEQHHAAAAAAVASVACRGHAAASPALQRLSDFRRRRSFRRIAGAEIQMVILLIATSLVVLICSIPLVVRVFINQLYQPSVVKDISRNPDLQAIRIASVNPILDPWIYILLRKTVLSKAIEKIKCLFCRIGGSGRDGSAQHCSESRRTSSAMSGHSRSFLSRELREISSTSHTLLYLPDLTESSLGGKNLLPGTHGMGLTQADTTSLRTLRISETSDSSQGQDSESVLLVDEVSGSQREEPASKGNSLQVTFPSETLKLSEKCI

Ki (human EP2 receptor; [2])	IC50 (Human EP4)	IC50 (Rat EP4)	IC50 ([1]; read-out: Human whole blood (Reversal of PGE2 Inhibited TNFα) IC50, 10 μg/ml LPS + 10 nmol/L PGE2, 20–24 h, geometric mean ± SD)	IC50 (Human EP4; HEK293 cells stably expressing human EP4, PGE2 at EC80, geometric mean ± SEM)	Compound	reversal of PGE2 suppression of LPS stimulated TNF‐α production ([1]; human whole blood, various concentrations (Fig. 5A))	times more potent than reference EP4 antagonists (whole blood assay) ([1]; human whole blood)	Ki (human EP2 receptor; read-out: Ki for EP2 receptor)
0.931 ± 0.457 µM	0.0045 ± 0.00185 µM	0.0206 ± 0.0018 µM	–	–	C[C@H](NC(=O)c1cc(Cl)ccc1Oc1ccc(F)cc1)c1ccc(C(=O)O)cc1 [CJ‐042,794, reference compound]	reversed	–	–
–	~0.006 µM	0.0123 µM	0.123 ± 0.08 µM	–	Cc1ccc(N2CCC(O)CC2)nc1C(=O)Nc1c(C)cc(C(=O)O)cc1C [Compound 1]	–	5–10 times	–
> 18.9 µM	–	0.001 µM	–	0.0024 ± 0.0014 µM	Cc1ccc(-c2cccc(CO)c2)nc1C(=O)Nc1c(C)ccc(C(=O)O)c1C [Compound 3]	–	–	–

Compound	Ki (human EP2 receptor; [2])	IC50 (Human EP4)	IC50 (Rat EP4)	IC50 ([1]; read-out: Human whole blood (Reversal of PGE2 Inhibited TNFα) IC50, 10 μg/ml LPS + 10 nmol/L PGE2, 20–24 h, geometric mean ± SD)	IC50 (Human EP4; HEK293 cells stably expressing human EP4, PGE2 at EC80, geometric mean ± SEM)	reversal of PGE2 suppression of LPS stimulated TNF‐α production ([1]; human whole blood, various concentrations (Fig. 5A))	times more potent than reference EP4 antagonists (whole blood assay) ([1]; human whole blood)	Ki (human EP2 receptor; read-out: Ki for EP2 receptor)
C[C@H](NC(=O)[C@H]1CCCCN1CCOc1ccccc1)c1ccc(C(=O)O)cc1 [Compound 2]	1.21 ± 0.509 µM	–	0.0154 µM	–	–	–	5–10 times	1.2 µM
